Measured values: patent US11254663B2 (BRISTOL-MYERS SQUIBB COMPANY, priority 2019, dated 2022)
Like-named read-outs stand apart in the source and are kept apart here.

Molecular target: FXR (Homo sapiens (Human), UniProt Q96RI1)
Assay: transient human FXR/Gal4-luciferase reporter assay
Type: cell-based
In short: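 Compound exposure ran overnight at 37 °C and activity was measured as luminescence with Steady-Glo reagent. The cells were a HEK293 line stably expressing firefly luciferase under five Gal4 response elements. They were transiently transfected, one night beforehand, with a plasmid encoding Gal4 DNA-binding domain fused to the human FXR ligand-binding domain.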

[1] = Gal4-hFXR fusion construct, HEK293 reporter cells, response relative to 8 μM GW-4064

Sequence of FXR (Q96RI1 262-486): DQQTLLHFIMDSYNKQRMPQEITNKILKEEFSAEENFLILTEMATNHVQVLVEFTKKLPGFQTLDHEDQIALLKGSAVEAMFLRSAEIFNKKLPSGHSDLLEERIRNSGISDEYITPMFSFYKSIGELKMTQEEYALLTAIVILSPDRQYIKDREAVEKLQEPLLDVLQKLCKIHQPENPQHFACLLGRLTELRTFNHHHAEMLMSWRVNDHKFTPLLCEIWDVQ

| SMILES | EC50 [nM] | EC50 [1] [nM] |
| --- | --- | --- |
| CCOc1ccc(-c2cccc(N(CC34CCC(c5ccc(C(F)(F)F)cn5)(CC3)CC4)C(=O)C34CC(F)(C3)C4)c2)cc1 [Example 489, N-(4′-ethoxy-[1,1′-biphenyl]-3-yl)-3-fluoro-N-((4-(5-(trifluoromethyl)pyridin-2-yl)bicyclo[2.2.2]octan-1-yl)methyl)bicyclo[1.1.1]pentane-1-carboxamide] | 1640 | – |
| Cc1nc2ccc(-c3cccc(N(CC45CCC(c6nc(C7CC7)no6)(CC4)OC5)C(=O)C4CC(C(F)F)C4)c3)cc2s1 (stereo not drawn) [Example 566, N-((1-(3-cyclopropyl-1,2,4-oxadiazol-5-yl)-2-oxabicyclo[2.2.2]octan-4-yl)methyl)-3-(difluoromethyl)-N-(3-(2-methylbenzo[d]thiazol-6-yl)phenyl)cyclobutane-1-carboxamide] | 922 | – |
| CC(C)(O)c1cnc(-c2ccnc(N(CC34CCC(c5ccc(C(C)(F)F)cn5)(CC3)CC4)C(=O)OC(C)(C)C(F)(F)F)c2)nc1 [Example 608, 1,1,1-trifluoro-2-methylpropan-2-yl ((4-(5-(1,1-difluoroethyl)pyridin-2-yl)bicyclo[2.2.2]octan-1-yl)methyl)(4-(5-(2-hydroxypropan-2-yl)pyrimidin-2-yl)pyridin-2-yl) carbamate] | – | 301 |
| COc1cc(-c2cccc(N(CC34CCC(c5ccnc(C)c5)(CC3)CC4)C(=O)C34CC(F)(C3)C4)c2)ccn1 [Example 238, 3-Fluoro-N-(3-(2-methoxypyridin-4-yl)phenyl)-N-((4-(2-methylpyridin-4-yl)bicyclo[2.2.2]octan-1-yl)methyl)bicyclo[1.1.1]pentane-1-carboxamide] | – | 517 |
| CCOc1ccc(-c2cccc(N(CC34CCC(c5nc(C6CC6)no5)(CC3)CC4)C(=O)C34CC(F)(C3)C4)c2)cn1 [Example 281, N-((4-(3-cyclopropyl-1,2,4-oxadiazol-5-yl)bicyclo[2.2.2]octan-1-yl)methyl)-N-(3-(6-ethoxypyridin-3-yl)phenyl)-3-fluorobicyclo[1.1.1]pentane-1-carboxamide] | – | 66 |
| Cc1ccnc(-c2cccc(N(CC34CCC(c5nc(C6CC6)no5)(CC3)CC4)C(=O)C34CC(F)(C3)C4)c2)n1 [Example 300, N-((4-(3-cyclopropyl-1,2,4-oxadiazol-5-yl)bicyclo[2.2.2]octan-1-yl)methyl)-3-fluoro-N-(3-(4-methylpyrimidin-2-yl)phenyl)bicyclo[1.1.1]pentane-1-carboxamide] | – | 413 |
| COc1ccc(-c2cccc(N(CC34CCC(c5nc(C6CC6)no5)(CC3)CC4)C(=O)C34CC(F)(C3)C4)c2)cc1 [Example 282, N-((4-(3-cyclopropyl-1,2,4-oxadiazol-5-yl)bicyclo[2.2.2]octan-1-yl)methyl)-3-fluoro-N-(4′-methoxy-[1,1′-biphenyl]-3-yl)bicyclo[1.1.1]pentane-1-carboxamide] | – | 19 |
| CC(C)(C)c1nc(C23CCC(CN(C(=O)C45CC(F)(C4)C5)c4cccc(-c5cnc(C(F)(F)F)nc5)c4)(CC2)CC3)no1 [Example 443, N-((4-(5-(tert-butyl)-1,2,4-oxadiazol-3-yl)bicyclo[2.2.2]octan-1-yl)methyl)-3-fluoro-N-(3-(2-(trifluoromethyl)pyrimidin-5-yl)phenyl)bicyclo[1.1.1]pentane-1-carboxamide] | – | 357 |
| CC(C)(C)c1nc(C23CCC(CN(C(=O)C45CC(F)(C4)C5)c4cccc(-c5cnc(C6CC6)nc5)c4)(CC2)CC3)no1 [Example 442, N-((4-(5-(tert-butyl)-1,2,4-oxadiazol-3-yl)bicyclo[2.2.2]octan-1-yl)methyl)-N-(3-(2-cyclopropylpyrimidin-5-yl)phenyl)-3-fluorobicyclo[1.1.1]pentane-1-carboxamide] | – | 71 |
| CC(F)(F)c1nc(C23CCC(CN(C(=O)OC(C)(C)C(F)(F)F)c4cc(-c5ccc(OC(F)(F)Cl)cc5)ccn4)(CC2)CC3)no1 [Example 615, 1,1,1-trifluoro-2-methylpropan-2-yl (4-(4-(chlorodifluoromethoxy)phenyl)pyridin-2-yl)((4-(5-(1,1-difluoroethyl)-1,2,4-oxadiazol-3-yl)bicyclo[2.2.2]octan-1-yl)methyl)carbamate] | – | 473 |
| Cc1nc2ccc(-c3cccc(N(CC45CCC(c6noc(C(F)F)n6)(CC4)CC5)C(=O)C45CC(F)(C4)C5)c3)cc2s1 [Example 462, N-((4-(5-(difluoromethyl)-1,2,4-oxadiazol-3-yl)bicyclo[2.2.2]octan-1-yl)methyl)-3-fluoro-N-(3-(2-methylbenzo[d]thiazol-6-yl)phenyl)bicyclo[1.1.1]pentane-1-carboxamide] | 107 | – |
| O=C(NC12CCC(CN(C(=O)C3CC(O)(C(F)(F)F)C3)c3cccc(-c4ccc(OC(F)F)cc4)c3)(CC1)CC2)c1ccc(F)cc1 (stereo not drawn) [Example 637, N-(4-(((cis)-N-(4′-(difluoromethoxy)-[1,1′-biphenyl]-3-yl)-3-hydroxy-3-(trifluoromethyl)cyclobutane-1-carboxamido)methyl)bicyclo[2.2.2]octan-1-yl)-4-fluorobenzamide] | – | 384 |
| CCOc1cnc(-c2cccc(N(CC34CCC(c5nc(C6CC6)no5)(CC3)CC4)C(=O)C34CC(F)(C3)C4)c2)nc1 [Example 333, N-((4-(3-cyclopropyl-1,2,4-oxadiazol-5-yl)bicyclo[2.2.2]octan-1-yl)methyl)-N-(3-(5-ethoxypyrimidin-2-yl)phenyl)-3-fluorobicyclo[1.1.1]pentane-1-carboxamide] | – | 302 |
| COc1cc(-c2cccc(N(CC34CCC(c5nc(C6CC6)no5)(CC3)CC4)C(=O)C34CC(F)(C3)C4)c2)cn2ncnc12 [Example 264, N-((4-(3-cyclopropyl-1,2,4-oxadiazol-5-yl)bicyclo[2.2.2]octan-1-yl)methyl)-3-fluoro-N-(3-(8-methoxy-[1,2,4]triazolo[1,5-a]pyridin-6-yl)phenyl)bicyclo[1.1.1]pentane-1-carboxamide] | – | 1500 |
| CCc1cnc(-c2cccc(N(CC34CCC(c5nc(C(C)C)no5)(CC3)CC4)C(=O)C34CC(F)(C3)C4)c2)nc1 [Example 394, N-(3-(5-ethylpyrimidin-2-yl)phenyl)-3-fluoro-N-((4-(3-isopropyl-1,2,4-oxadiazol-5-yl)bicyclo[2.2.2]octan-1-yl)methyl)bicyclo[1.1.1]pentane-1-carboxamide] | – | 77 |
| N#Cc1ccc(-c2cccc(N(CC34CCC(c5nc(C6CC6)no5)(CC3)CC4)C(=O)C34CC(F)(C3)C4)c2)c2cccnc12 [Example 311, N-(3-(8-cyanoquinolin-5-yl)phenyl)-N-((4-(3-cyclopropyl-1,2,4-oxadiazol-5-yl)bicyclo[2.2.2]octan-1-yl)methyl)-3-fluorobicyclo[1.1.1]pentane-1-carboxamide] | – | 662 |
| CCOc1ncc(-c2cccc(N(CC34CCC(c5nc(C(C)(C)C)no5)(CC3)CC4)C(=O)C3CC(O)(C(F)(F)F)C3)c2)cn1 [Example 507, (1S,3S)—N-((4-(3-(tert-butyl)-1,2,4-oxadiazol-5-yl)bicyclo[2.2.2]octan-1-yl)methyl)-N-(3-(2-ethoxypyrimidin-5-yl)phenyl)-3-hydroxy-3-(trifluoromethyl)cyclobutane-1-carboxamide] | 188 | – |
| CS(=O)(=O)Nc1ccc(-c2cccc(N(CC34CCC(c5cc(C(F)(F)F)ccn5)(CC3)CC4)C(=O)C34CC(F)(C3)C4)c2)cc1 [Example 355, 3-fluoro-N-(4′-(methylsulfonamido)-[1,1′-biphenyl]-3-yl)-N-((4-(4-(trifluoromethyl)pyridin-2-yl)bicyclo[2.2.2]octan-1-yl)methyl)bicyclo[1.1.1]pentane-1-carboxamide] | – | 780 |
| CC(C)(C)COC(=O)N(CC12CCC(c3noc(C(C)(F)F)n3)(CC1)CC2)c1cc(-c2ccc(C(C)(C)O)cc2)c(F)cn1 [Example 619, Neopentyl ((4-(5-(1,1-difluoroethyl)-1,2,4-oxadiazol-3-yl)bicyclo[2.2.2]octan-1-yl)methyl) (5-fluoro-4-(4-(2-hydroxypropan-2-yl)phenyl)pyridin-2-yl) carbamate] | – | 28 |
| CCOc1ccc(-c2cncc(N(CC34CCC(c5nc(C6CC6)no5)(CC3)CC4)C(=O)C34CC(F)(C3)C4)c2)cn1 [Example 426, N-((4-(3-cyclopropyl-1,2,4-oxadiazol-5-yl)bicyclo[2.2.2]octan-1-yl)methyl)-N-(6′-ethoxy-[3,3′-bipyridin]-5-yl)-3-fluorobicyclo[1.1.1]pentane-1-carboxamide] | – | 417 |
| CC(C)Oc1ccc(-c2cc(N(CC34CCC(c5noc(C6(F)CC6)n5)(CC3)CC4)C(=O)[C@H]3C[C@](O)(C(F)(F)F)C3)ccc2F)cc1 [Example 581, (cis)-N-(6-fluoro-4′-isopropoxy-[1,1′-biphenyl]-3-yl)-N-((4-(5-(1-fluorocyclopropyl)-1,2,4-oxadiazol-3-yl)bicyclo[2.2.2]octan-1-yl)methyl)-3-hydroxy-3-(trifluoromethyl)cyclobutane-1-carboxamide] | – | 74 |
| N#Cc1cc2sccc2nc1-c1cccc(N(CC23CCC(c4nc(C5CC5)no4)(CC2)CC3)C(=O)C23CC(F)(C2)C3)c1 [Example 316, N-(3-(6-cyanothieno[3,2-b]pyridin-5-yl)phenyl)-N-((4-(3-cyclopropyl-1,2,4-oxadiazol-5-yl)bicyclo[2.2.2]octan-1-yl)methyl)-3-fluorobicyclo[1.1.1]pentane-1-carboxamide] | – | 138 |
| COc1ccc(-c2cccc(N(CC34CCC(c5nnc(C6CC6)o5)(CC3)CC4)C(=O)C34CC(F)(C3)C4)c2)cn1 [Example 343, N-((4-(5-cyclopropyl-1,3,4-oxadiazol-2-yl)bicyclo[2.2.2]octan-1-yl)methyl)-3-fluoro-N-(3-(6-methoxypyridin-3-yl)phenyl)bicyclo[1.1.1]pentane-1-carboxamide] | – | 154 |
| O=C(N(CC12CCC(c3nc(C4CC4)no3)(CC1)CC2)c1cccc(-c2ncc(OC(F)F)cn2)c1)C12CC(F)(C1)C2 [Example 335, N-((4-(3-cyclopropyl-1,2,4-oxadiazol-5-yl)bicyclo[2.2.2]octan-1-yl)methyl)-N-(3-(5-(difluoromethoxy)pyrimidin-2-yl)phenyl)-3-fluorobicyclo[1.1.1]pentane-1-carboxamide] | – | 26 |
